Converted amounts (≈) assume the structure as drawn.
Target: DNA gyrase subunit B (Staphylococcus aureus, UniProt P0A0K8)
Assay: Inhibition of ATPase activity in Staphylococcus aureus GyrB tetramer in presence of Escherichia coli GyrA by ammonium molybdate/malachite green-based absorbance assay
Details: not given

Sequence of DNA gyrase subunit B (P0A0K8 whole entry): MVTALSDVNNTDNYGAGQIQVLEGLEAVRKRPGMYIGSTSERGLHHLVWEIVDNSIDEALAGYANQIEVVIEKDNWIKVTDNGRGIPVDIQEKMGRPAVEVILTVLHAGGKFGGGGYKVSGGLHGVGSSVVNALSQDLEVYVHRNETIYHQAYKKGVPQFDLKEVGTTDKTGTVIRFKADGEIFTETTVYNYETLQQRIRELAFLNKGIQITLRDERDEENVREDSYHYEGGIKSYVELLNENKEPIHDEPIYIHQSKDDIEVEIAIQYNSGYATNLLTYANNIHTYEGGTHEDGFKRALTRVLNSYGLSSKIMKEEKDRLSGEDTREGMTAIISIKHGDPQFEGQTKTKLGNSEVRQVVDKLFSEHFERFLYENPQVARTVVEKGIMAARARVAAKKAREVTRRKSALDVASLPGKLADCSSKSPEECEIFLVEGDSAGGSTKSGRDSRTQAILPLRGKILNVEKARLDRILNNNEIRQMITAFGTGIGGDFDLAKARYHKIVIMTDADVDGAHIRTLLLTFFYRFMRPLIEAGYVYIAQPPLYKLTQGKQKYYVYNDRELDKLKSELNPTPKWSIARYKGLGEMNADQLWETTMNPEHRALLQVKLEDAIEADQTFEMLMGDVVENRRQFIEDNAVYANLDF

SMILES	IC50
CCNC(=O)Nc1cc(-c2nc(C(F)(F)F)cs2)c(-c2cncc(-c3nnn[nH]3)c2)cn1	< 0.01 µM
CCNC(=O)Nc1cc(-c2nc(C(F)(F)F)cs2)c(-c2cncc(C(N)=O)c2)cn1	< 0.01 µM

System: not listed separately
Assay: Inhibition of ATPase activity in Escherichia coli GyrA/GyrB by ammonium molybdate/malachite green-based absorbance assay
Details: not given

SMILES	IC50
CCNC(=O)Nc1cc(-c2nc(C(F)(F)F)cs2)c(-c2cncc(-c3nnn[nH]3)c2)cn1	< 0.01 µM
CCNC(=O)Nc1cc(-c2nc(C(F)(F)F)cs2)c(-c2cncc(C(N)=O)c2)cn1	0.017 µM

System: not listed separately
Assay: Inhibition of ATPase activity in Escherichia coli ParC/ParE by ammonium molybdate/malachite green-based absorbance assay
Details: not given

SMILES	IC50
CCNC(=O)Nc1cc(-c2nc(C(F)(F)F)cs2)c(-c2cncc(-c3nnn[nH]3)c2)cn1	0.26 µM
CCNC(=O)Nc1cc(-c2nc(C(F)(F)F)cs2)c(-c2cncc(C(N)=O)c2)cn1	0.96 µM

System: not listed separately
Assay: Inhibition of ATPase activity in Escherichia coli ParE by ammonium molybdate/malachite green-based absorbance assay
Details: not given

SMILES	IC50
CCNC(=O)Nc1cc(-c2nc(C(F)(F)F)cs2)c(-c2cncc(-c3nnn[nH]3)c2)cn1	< 0.01 µM
CCNC(=O)Nc1cc(-c2nc(C(F)(F)F)cs2)c(-c2cncc(C(N)=O)c2)cn1	0.012 µM

System: not listed separately
Assay: Antibacterial activity against Streptococcus pneumoniae D39 NCTC 7466 assessed as growth inhibition after 18 to 24 hrs by CLSI broth microdilution method
Format: functional
Details: not given

SMILES	MIC
CCNC(=O)Nc1cc(-c2nc(C(F)(F)F)cs2)c(-c2cncc(-c3nnn[nH]3)c2)cn1	1.4 mg/L (≈ 3.03 µM)
CCNC(=O)Nc1cc(-c2nc(C(F)(F)F)cs2)c(-c2cncc(C(N)=O)c2)cn1	0.09 mg/L (≈ 0.206 µM)

System: Staphylococcus aureus
Assay: Antibacterial activity against methicillin-sensitive wild type Staphylococcus aureus assessed as growth inhibition after 18 to 24 hrs by CLSI broth microdilution method
Format: functional
Details: not given

SMILES	MIC
CCNC(=O)Nc1cc(-c2nc(C(F)(F)F)cs2)c(-c2cncc(-c3nnn[nH]3)c2)cn1	> 64 mg/L
CCNC(=O)Nc1cc(-c2nc(C(F)(F)F)cs2)c(-c2cncc(C(N)=O)c2)cn1	2.7 mg/L (≈ 6.19 µM)

System: Staphylococcus aureus
Assay: Antibacterial activity against methicillin-resistant and […] Staphylococcus aureus assessed as growth inhibition after 18 to 24 hrs by CLSI broth microdilution method
Format: functional
Details: not given

SMILES	MIC
CCNC(=O)Nc1cc(-c2nc(C(F)(F)F)cs2)c(-c2cncc(C(N)=O)c2)cn1	1.4 mg/L (≈ 3.21 µM)

System: Moraxella catarrhalis
Assay: Antibacterial activity against wild type Moraxella catarrhalis ATCC 43617 assessed as growth inhibition after 18 to 24 hrs by CLSI broth microdilution method
Format: functional
Details: not given

SMILES	MIC
CCNC(=O)Nc1cc(-c2nc(C(F)(F)F)cs2)c(-c2cncc(-c3nnn[nH]3)c2)cn1	> 64 mg/L
CCNC(=O)Nc1cc(-c2nc(C(F)(F)F)cs2)c(-c2cncc(C(N)=O)c2)cn1	0.7 mg/L (≈ 1.6 µM)

System: not listed separately
Assay: Antibacterial activity against wild type Haemophilus influenzae Rd KW20 ATCC 51907 assessed as growth inhibition after 18 to 24 hrs by CLSI broth microdilution method
Format: functional
Details: not given

SMILES	MIC
CCNC(=O)Nc1cc(-c2nc(C(F)(F)F)cs2)c(-c2cncc(-c3nnn[nH]3)c2)cn1	> 64 mg/L
CCNC(=O)Nc1cc(-c2nc(C(F)(F)F)cs2)c(-c2cncc(C(N)=O)c2)cn1	5.5 mg/L (≈ 12.6 µM)

System: Escherichia coli
Assay: Antibacterial activity against wild type Escherichia coli W3110 assessed as growth inhibition after 18 to 24 hrs by CLSI broth microdilution method
Format: functional
Details: not given

SMILES	MIC
CCNC(=O)Nc1cc(-c2nc(C(F)(F)F)cs2)c(-c2cncc(-c3nnn[nH]3)c2)cn1	> 64 mg/L
CCNC(=O)Nc1cc(-c2nc(C(F)(F)F)cs2)c(-c2cncc(C(N)=O)c2)cn1	> 64 mg/L

System: Escherichia coli
Assay: Antibacterial activity against tolC efflux pump deficient Escherichia coli W3110 assessed as growth inhibition after 18 to 24 hrs by CLSI broth microdilution method
Format: functional
Details: not given

SMILES	MIC
CCNC(=O)Nc1cc(-c2nc(C(F)(F)F)cs2)c(-c2cncc(-c3nnn[nH]3)c2)cn1	23 mg/L (≈ 49.8 µM)
CCNC(=O)Nc1cc(-c2nc(C(F)(F)F)cs2)c(-c2cncc(C(N)=O)c2)cn1	1.6 mg/L (≈ 3.67 µM)

System: not listed separately
Assay: Octanol-phosphate buffer partition coefficient, log D of the compound at pH 7.4 after 1 hr by shake flask method
Format: physicochemical
Details: not given

SMILES	logD at 1 h
CCNC(=O)Nc1cc(-c2nc(C(F)(F)F)cs2)c(-c2cncc(-c3nnn[nH]3)c2)cn1	-0.38
CCNC(=O)Nc1cc(-c2nc(C(F)(F)F)cs2)c(-c2cncc(C(N)=O)c2)cn1	2

System: not listed separately
Assay: Solubility of the compound
Format: physicochemical
Details: not given

SMILES	solubility
CCNC(=O)Nc1cc(-c2nc(C(F)(F)F)cs2)c(-c2cncc(-c3nnn[nH]3)c2)cn1	240 µM (≈ 111 µg/mL)
CCNC(=O)Nc1cc(-c2nc(C(F)(F)F)cs2)c(-c2cncc(C(N)=O)c2)cn1	26 µM (≈ 11.3 µg/mL)

System: not listed separately
Assay: Unbound fraction in human at 10 uM after 16 hrs by LC-MS/MS analysis
Format: ADME
Details: plasma

SMILES	fraction unbound at 16 h, 10 µM
CCNC(=O)Nc1cc(-c2nc(C(F)(F)F)cs2)c(-c2cncc(-c3nnn[nH]3)c2)cn1	0.14
CCNC(=O)Nc1cc(-c2nc(C(F)(F)F)cs2)c(-c2cncc(C(N)=O)c2)cn1	0.36

System: not listed separately
Assay: Dissociation constant, pKa of the compound
Format: physicochemical
Details: not given

SMILES	pKa
CCNC(=O)Nc1cc(-c2nc(C(F)(F)F)cs2)c(-c2cncc(-c3nnn[nH]3)c2)cn1	3.7

System: not listed separately
Assay: Clearance in rat plasma at 10 mg/kg, iv administered 15 mins of infusion measured for 0 to 24 hrs by LC-MS/MS analysis
Format: ADME, organism-based
Parameters: dose 10 mg/kg, route intravenous
Details: not given

SMILES	clearance
CCNC(=O)Nc1cc(-c2nc(C(F)(F)F)cs2)c(-c2cncc(C(N)=O)c2)cn1	7.2 L/h/kg

System: not listed separately
Assay: Volume of distribution at steady state in rat plasma at 10 mg/kg, iv administered 15 mins of infusion measured for 0 to 24 hrs by LC-MS/MS analysis
Format: ADME, organism-based
Parameters: dose 10 mg/kg, route intravenous
Details: read-out: Vdss

SMILES	Vd
CCNC(=O)Nc1cc(-c2nc(C(F)(F)F)cs2)c(-c2cncc(C(N)=O)c2)cn1	1.5 L/kg

System: Staphylococcus aureus
Assay: Inhibition of DNA synthesis in methicillin-sensitive wild type Staphylococcus aureus over 1 hr by [3H]thymidine incorporation assay
Format: functional, organism-based
Details: not given

SMILES	IC50
CCNC(=O)Nc1cc(-c2nc(C(F)(F)F)cs2)c(-c2cncc(C(N)=O)c2)cn1	1.6 µM

System: Staphylococcus aureus
Assay: Inhibition of RNA synthesis in methicillin-sensitive wild type Staphylococcus aureus over 1 hr by [3H]uridine incorporation assay
Format: functional, organism-based
Details: not given

SMILES	IC50
CCNC(=O)Nc1cc(-c2nc(C(F)(F)F)cs2)c(-c2cncc(C(N)=O)c2)cn1	6.9 µM

System: Staphylococcus aureus
Assay: Inhibition of protein synthesis in methicillin-sensitive wild type Staphylococcus aureus over 1 hr by [14C]leucine incorporation assay
Format: functional, organism-based
Details: not given

SMILES	IC50
CCNC(=O)Nc1cc(-c2nc(C(F)(F)F)cs2)c(-c2cncc(C(N)=O)c2)cn1	8.8 µM

System: Staphylococcus aureus
Assay: Inhibition of protein synthesis in methicillin-sensitive wild type Staphylococcus aureus over 1 hr by [14C]valine incorporation assay
Format: functional, organism-based
Details: not given

SMILES	IC50
CCNC(=O)Nc1cc(-c2nc(C(F)(F)F)cs2)c(-c2cncc(C(N)=O)c2)cn1	31 µM

System: Staphylococcus aureus
Assay: Inhibition of fatty acid synthesis in methicillin-sensitive wild type Staphylococcus aureus over 1 hr by [14C]acetic acid incorporation assay
Format: functional, organism-based
Details: not given

SMILES	IC50
CCNC(=O)Nc1cc(-c2nc(C(F)(F)F)cs2)c(-c2cncc(C(N)=O)c2)cn1	> 200 µM

System: Staphylococcus aureus
Assay: Inhibition of cell wall synthesis in methicillin-sensitive wild type Staphylococcus aureus over 1 hr by [14C]N-acetyl glucosamine incorporation assay
Format: functional, organism-based
Details: not given

SMILES	IC50
CCNC(=O)Nc1cc(-c2nc(C(F)(F)F)cs2)c(-c2cncc(C(N)=O)c2)cn1	> 200 µM

System: Streptococcus pneumoniae
Assay: Inhibition of DNA synthesis in Streptococcus pneumoniae D39 over 1 hr by [3H]thymidine incorporation assay
Format: functional
Details: not given

SMILES	IC50
CCNC(=O)Nc1cc(-c2nc(C(F)(F)F)cs2)c(-c2cncc(C(N)=O)c2)cn1	0.46 µM

System: Streptococcus pneumoniae
Assay: Inhibition of RNA synthesis in Streptococcus pneumoniae D39 over 1 hr by [3H]uridine incorporation assay
Format: functional
Details: not given

SMILES	IC50
CCNC(=O)Nc1cc(-c2nc(C(F)(F)F)cs2)c(-c2cncc(C(N)=O)c2)cn1	0.83 µM

System: Streptococcus pneumoniae
Assay: Inhibition of protein synthesis in Streptococcus pneumoniae D39 over 1 hr by [14C]leucine incorporation assay
Format: functional
Details: D39, 1 h

SMILES	IC50
CCNC(=O)Nc1cc(-c2nc(C(F)(F)F)cs2)c(-c2cncc(C(N)=O)c2)cn1	0.86 µM

System: Streptococcus pneumoniae
Assay: Inhibition of protein synthesis in Streptococcus pneumoniae D39 over 1 hr by [14C]valine incorporation assay
Format: functional
Details: D39, 1 h

SMILES	IC50
CCNC(=O)Nc1cc(-c2nc(C(F)(F)F)cs2)c(-c2cncc(C(N)=O)c2)cn1	1.2 µM

System: Streptococcus pneumoniae
Assay: Inhibition of fatty acid synthesis in Streptococcus pneumoniae D39 over 1 hr by [14C]acetic acid incorporation assay
Format: functional
Details: D39, 1 h

SMILES	IC50
CCNC(=O)Nc1cc(-c2nc(C(F)(F)F)cs2)c(-c2cncc(C(N)=O)c2)cn1	> 20 µM

System: Streptococcus pneumoniae
Assay: Inhibition of cell wall synthesis in Streptococcus pneumoniae D39 over 1 hr by [14C]N-acetyl glucosamine incorporation assay
Format: functional
Details: D39, 1 h

SMILES	IC50
CCNC(=O)Nc1cc(-c2nc(C(F)(F)F)cs2)c(-c2cncc(C(N)=O)c2)cn1	> 20 µM
